{"source": "patent US20230277680A1", "about": "“CONJUGATE OF A SINGLE DOMAIN ANTIBODY, A SAPONIN AND AN EFFECTOR MOLECULE, PHARMACEUTICAL COMPOSITION COMPRISING THE SAME, THERAPEUTIC USE OF SAID PHARMACEUTICAL COMPOSITION” (SAPREME TECHNOLOGIES B.V., priority 2020, published 2023)", "key": {"A431 cells": {"system": "A431 cells", "assay": "Cell viability (MTS) assay, cell killing", "type": "cell-based, human", "conditions": "read-out: [SO1861] IC50 cell killing, + fixed 10 μM cetuximab-saporin, calculated on concentration SO1861", "method": "(§1) After treatment the cells were incubated for 72 hr at 37° C. before the cell viability was determined by a MTS-assay, performed according to the manufacturer's instruction (CellTiter 96® AQueous One Solution Cell Proliferation Assay, Promega). Briefly, the MTS solution was diluted 20× in DMEM without phenol red (PAN-Biotech GmbH) supplemented with 10% FBS. The cells were washed once with 200 μL/PBS well, after which 100 μL diluted MTS solution was added/well. The plate was incubated for approximately 20-30 minutes at 37° C. Subsequently, the OD at 492 nm was measured on a Thermo Scientific Multiskan FC plate reader (Thermo Scientific). For quantification the background signal of ‘medium only’ wells was subtracted from all other wells, before the cell viability percentage of treated/untreated cells was calculated, by dividing the background corrected signal of treated wells over the background corrected signal of the untreated wells (×100). […]\n(§2) After treatment the cells were incubated for 72 hr at 37° C. before the cell viability was determined by a MTS-assay, performed according to the manufacturer's instruction (CellTiter 96® AQueous One Solution Cell Proliferation Assay, Promega). […] Subsequently, the optical density at 492 nm was measured on a Thermo Scientific Multiskan FC plate reader (Thermo Scientific). […]"}, "SK-BR-3 cells": {"system": "SK-BR-3 cells", "assay": "Cell viability (MTS) assay, cell killing", "type": "cell-based, human", "conditions": "read-out: [SO1861] IC50 cell killing; SKBR3; + fixed 1.5 μM EGF-dianthin", "method": "as §1, §2"}}, "note": "pIC50: −log10 of the molar value."}
{"smiles": "CC(=O)O[C@H]1[C@H](O[C@@H]2OC[C@@H](O)[C@H](O)[C@H]2O)[C@@H](O)[C@H](O[C@@H]2[C@H](O)[C@@H](O[C@@H]3O[C@@H](C)[C@H](O[C@@H]4OC[C@@H](O)[C@H](O[C@@H]5OC[C@@H](O)[C@H](O)[C@H]5O)[C@H]4O)[C@@H](O)[C@H]3O)[C@H](OC(=O)[C@]34CCC(C)(C)C[C@H]3C3=CC[C@@H]5[C@@]6(C)CC[C@H](O[C@H]7O[C@H](C(=O)O)[C@@H](O)[C@H](O[C@@H]8OC[C@@H](O)[C@H](O)[C@H]8O)[C@H]7O[C@@H]7O[C@H](CO)[C@H](O)[C@H](O)[C@H]7O)[C@@](C)(C=O)[C@@H]6CC[C@@]5(C)[C@]3(C)C[C@H]4O)O[C@@H]2C)O[C@@H]1C", "note": "[SO1861]", "values": [{"measurement": "pIC50", "setting": "A431 cells", "value": 6.22}, {"measurement": "pIC50", "setting": "SK-BR-3 cells", "value": 6.10}]}
